Reference: patent US6297250A, “Pyrimidopyrimidine compounds” (Newcastle University Ventures Limited, priority 1997, dated 2001)
Several values for one entry are separate records, joined by “and”; a condition that tells them apart may be missing. Equal entries are not always repeated. Where two headings read alike, the source gives them in different places. Values belong to the compound of their own block, whether it stands above or below them.

System: L1210 cells
Assay: Nucleoside transport inhibition assay: inhibition of 3H-thymidine uptake, with or without AGP or HSA
Format: cell-based, murine
Conditions: for inhibition at 10 µM: L1210, 10 μM compound; for inhibition at 100 µM: L1210, 100 μM compound; for inhibition at 1 µM: L1210, 1 μM compound; for Effect of AGP on the inhibition of thymidine uptake: in words; for inhibition at 0.25 µM: L1210, 0.25 μM compound
Experimental: In vitro activity. […] For testing the compounds an established nucleoside transport assay involving measurement of thymidine uptake was adapted. Murine leukaemia L1210 cells were used in this assay as their nucleoside transport characteristics are well known. This assay for measuring thymidine uptake used a modification of the rapid mixing technique of Wohleheuter, R. […] Materials used included a transport buffer comprising 130 mM NaCl, 5 mM KC1, 1 mM MgCl, 5 mM NaH2 PO4, 10 mM glucose and 10 mM HEPES. This buffer was made up as sterile 5× concentrate and reconstituted in distilled water and adjusted to pH 7.4 immediately prior to carrying out the assay. […] The supernatant was aspirated and the cells were washed with ice-cold transport buffer and centrifuged again at 1000 rpm for 5 minutes at 4° C. The supernatant was removed and the cells were resuspended in ice-cold transport buffer to give a final cell density of 2-4×10^7 cells/mi. Cells were left on ice for 30 minutes recovery prior to starting the assay. […] The suspension was mixed well and 100 μl was layered onto 150 μl silicone oil (9:11 Dow Corning 556 (Sp.Gr. 0.98):Dow Corning 550 (Sp.Gr. 1.068) (final Sp.Gr. 1.028) overlaying 50 μl 3M KOH in 6 replicate 0.5 ml microfuge tubes. […] The tubes were immediately transferred to a microfuge (Eppendorf) and spun at 12000 rpm for 2 minutes to pellet the cells through the oil and into the KOH. The tubes were capped and the cells left to solubilise in the KOH for 1 hour. Cell number and viability for each run was determined by haemocytometer counting using trypan blue exclusion. […] The tubes were capped and cut in the oil layer such that the bottom portion (cells solubilised in KOH) fell into a 20 ml scintillation vial. 1 ml 0.25M acetic acid followed by 1 ml air was injected into the tube using a 2 ml syringe and 23-gauge needle to disperse and neutralise the KOH-solubilisedcells. 10 ml of Optiphase HiSafe™ scintillant was added and the vials capped and shaken. […] The [^14 C]:[^3 H] ratio was used to calculate the amount of non-transported contaminating [^3 H]thymidine in the extracellular space.

[1] = Mus musculus, no AGP, read-out: % Inhibition of 3H-thymidine uptake, No AGP
[2] = Mus musculus, +5 mg/ml AGP vs no AGP, read-out: % Reduction (of inhibition by AGP)
[3] = Mus musculus, +5 mg/ml AGP, read-out: % Inhibition of 3H-thymidine uptake, +5 mg/ml AGP
[4] = Mus musculus, no AGP, 5% DMSO, read-out: % Inhibition of 3H-thymidine uptake, No AGP (5% DMSO)

Compound: COCC(C)Oc1nc(N2CCCCC2)c2nc(OC(C)COC)nc(N3CCCCC3)c2n1 (stereo not shown) [NU3074, 2,6-Di(1'-methoxy-2'-methyl)ethoxy-4,8-dipiperidinopyrimidopyrimidine]
inhibition at 10 µM [1]: 62 ± 10% | inhibition at 100 µM [1]: 96 ± 7%

Compound: CC1(C)OC[C@@H](COc2nc(NCc3ccccc3)c3nc(OC[C@@H]4COC(C)(C)O4)nc(NCc4ccccc4)c3n2)O1 [NU3078, (R,R)-2,6-bis(2',2'-Dimethyl-1',3'-dioxolane-4'-methoxy)-4,8-dibenzylamino pyrimidopyrimidine]
% Inhibition of 3H-thymidine uptake, No AGP (10 μM compound, no AGP): 46 ± 3%

Compound: CCCOc1nc(N2CCCCC2)c2nc(OCCC)nc(N3CCCCC3)c2n1 [NU3064, 2,6-Di(n)propoxy-4,8-dipiperidinopyrimidopyrimidine]
inhibition at 10 µM [1]: 37 ± 11% | inhibition at 100 µM [1]: 60 ± 9% | IC50 (Mus musculus, L1210, no AGP): 52000 nM

Compound: COc1ccc(CN(C)c2nc(OCCCO)nc3c(N(C)Cc4ccc(OC)c(OC)c4)nc(OCCCO)nc23)cc1OC [NU3096, 2,6-di(-3-hydroxypropoxy)-4,8-bis[(-3,4-dimethoxybenzyl)-N-methylamino]pyrimidopyrimidine]
inhibition at 1 µM [1]: 54 ± 2% | IC50 (Mus musculus, L1210, no AGP): 750 nM

Compound: CC(C)Oc1nc(N2CCCCC2)c2nc(OC(C)C)nc(N3CCCCC3)c2n1 [NU3069, 2,6-Di-iso-propoxy-4,8-dipiperidinopyrimidopyrimidine]
inhibition at 10 µM [4]: 23 ± 12% | inhibition at 100 µM [4]: 64 ± 6%

Compound: OCCCOc1nc(N2CCCCC2)c2nc(OCCCO)nc(N3CCCCC3)c2n1 [NU3085, 2,6-Di(3'-hydroxypropoxy)-4,8-dipiperidinopyrimidopyrimidine]
% Inhibition of 3H-thymidine uptake, No AGP (10 μM compound, no AGP, 10 µM): 100% and 76% | inhibition at 1 µM [1]: 35 ± 5% | IC50 (Mus musculus, L1210, no AGP): 2360 nM

Compound: CC(=O)COc1nc(N2CCCCC2)c2nc(OCC(C)=O)nc(N3CCCCC3)c2n1 [NU3066, 2,6-Di(-2-oxopropoxy)-4,8-dipiperidinopyrimidopyrimidine]
inhibition at 10 µM [4]: 58 ± 3%

Compound: COc1ccc(CNc2nc(N(CCO)CCO)nc3c(NCc4ccc(OC)c(OC)c4)nc(Cl)nc23)cc1OC [NU3081, 2-chloro-6-diethanolamino-4,8-bis[(3',4'-dimethoxybenzyl)amino]pyrimidopyrimidine]
inhibition at 1 µM [1]: 59 ± 2% | inhibition at 10 µM [1]: 95 ± 9% | IC50 (Mus musculus, L1210, no AGP): 710 nM

Compound: COCCOc1nc(N(Cc2ccccc2)Cc2ccccc2)c2nc(OCCOC)nc(N(Cc3ccccc3)Cc3ccccc3)c2n1 [NU3094, 2,6-di(-2-methoxyethoxy)-4,8-bis(dibenzylamino) pyrimidopyrimidine]
inhibition at 1 µM [1]: 9 ± 10% | inhibition at 10 µM [1]: 15 ± 4%

Compound: CCOC(C)(COc1nc(N2CCCCC2)c2nc(OCC(C)(OCC)OCC)nc(N3CCCCC3)c2n1)OCC [NU3065, 2,6-bis(2',2'-Diethylacetal-1-propoxy)-4,8-dipiperidinopyrimidopyrimidine]
inhibition at 1 µM [1]: 30 ± 7% | inhibition at 10 µM [1]: 65 ± 9% | inhibition at 100 µM [1]: 82 ± 16% | IC50 (Mus musculus, L1210, no AGP): 4240 nM

Compound: OCCN(CCO)c1nc(NCc2ccc(C(F)(F)F)cc2)c2nc(N(CCO)CCO)nc(NCc3ccc(C(F)(F)F)cc3)c2n1 [NU3079, 2,6-bis(Diethanolamino)-4,8-di[(4'-trifluoromethylbenzyl)amino]pyrimido pyrimidine]
inhibition at 1 µM [1]: 32 ± 11% | inhibition at 10 µM [1]: 60 ± 7%

Compound: COc1ccc(CN(C)c2nc(OCCCO)nc3c(N(C)Cc4ccc(OC)cc4)nc(OCCCO)nc23)cc1 [NU3090, 2,6-Di(3'-hydroxypropoxy)-4,8-di[(N-4'-methoxybenzylmethyl)amino]pyrimidopyrimidine]
% Reduction (of inhibition by AGP) (1 μM compound, +5 mg/ml AGP vs no AGP): 53% | % Inhibition of 3H-thymidine uptake, +5 mg/ml AGP (1 μM compound, +5 mg/ml AGP, 1 µM): 32 ± 10% and 32% | % Inhibition of 3H-thymidine uptake, No AGP (1 μM compound, no AGP, 1 µM): 74 ± 18% and 69 ± 19% | % Inhibition of 3H-thymidine uptake, No AGP (10 μM compound, no AGP): 100 ± 0% | IC50 (no AGP): 220 nM and 240 nM

Compound: COCCOc1nc(N2CCCCC2)c2nc(OCCOC)nc(N3CCCCC3)c2n1 [NU3093, 2,6-Di(-2'-methoxyethoxy)-4,8-dipiperidinopyrimidopyrimidine]
% Inhibition of 3H-thymidine uptake, No AGP (10 μM compound, no AGP, 10 µM): 68% | inhibition at 1 µM [1]: 20 ± 6% | inhibition at 10 µM [1]: 63% | IC50 (Mus musculus, L1210, no AGP): 4600 nM

More lines, main results first:

IC50 (Mus musculus, L1210, no AGP): 720 ± 380 nM
Compound: OCCN(CCO)c1nc(N2CCc3ccccc3C2)c2nc(N(CCO)CCO)nc(N3CCc4ccccc4C3)c2n1 [NU3080, 2,6-bis-Diethanolamino-4,8-di-(N-1,2,3,4-tetrahydroisoquinolyl)pyrimidopyrimidine]
inhibition at 1 µM [1]: 72 ± 22% | inhibition at 10 µM [2]: 31% | inhibition at 10 µM [3]: 69% | inhibition at 10 µM [1]: 100%

IC50 (Mus musculus, L1210, no AGP): 250 nM
Compound: COc1ccc(CNc2nc(N(CCO)CCO)nc3c(NCc4ccc(OC)c(OC)c4)nc(N(CCO)CCO)nc23)cc1OC [NU3084, 2,6-bis(Diethanolamino)-4,8-bis[(3',4'-dimethoxybenzyl)amino]pyrimidopyrimidine]
% Inhibition of 3H-thymidine uptake, No AGP (1 μM compound, no AGP, 1 µM): 67 ± 10% | inhibition at 1 µM [2]: 4% | inhibition at 1 µM [3]: 64 ± 3% | inhibition at 1 µM [1]: 74 ± 16% | inhibition at 10 µM [2]: 5% | inhibition at 10 µM [3]: 93 ± 10% | inhibition at 10 µM [1]: 98 ± 5% | Effect of AGP on the inhibition of thymidine uptake: no significant reduction | Potency as inhibitor relative to dipyridamole (presence and absence of AGP, or of 40 mg/ml human serum albumin): more potent inhibitors than dipyridamole

IC50 (Mus musculus, L1210, no AGP): 980 nM | IC50 (no AGP): 840 nM
Compound: COc1ccc(CN(C)c2nc(N(CCO)CCO)nc3c(N(C)Cc4ccc(OC)cc4)nc(N(CCO)CCO)nc23)cc1 [NU3102, 2,6-bis-Diethanolamino-4,8-di-(N-[4-methoxybenzyl]-N-methyl)aminopyrimidopyrimidine]
% Inhibition of 3H-thymidine uptake, No AGP (0.1 μM compound, no AGP, 0.1 µM): 20% | % Inhibition of 3H-thymidine uptake, No AGP (1 μM compound, no AGP, 1 µM): 57% | % Inhibition of 3H-thymidine uptake, No AGP (10 μM compound, no AGP): insoluble | inhibition at 0.1 µM (Mus musculus, L1210, 0.1 μM compound, no AGP): 23% | inhibition at 1 µM [1]: 51%

IC50 (Mus musculus, L1210, no AGP): 900 nM | IC50 (no AGP): 1130 nM
Compound: CC(O)COc1nc(N2CCCCC2)c2nc(OCC(C)O)nc(N3CCCCC3)c2n1 (stereo not shown) [NU3077, 2,6-Di(2'-hydroxypropoxy)-4,8-dipiperidinopyrimidopyrimidine]
% Inhibition of 3H-thymidine uptake, No AGP (1 μM compound, no AGP, 1 µM): 44 ± 8% | inhibition at 1 µM [2]: 55% | inhibition at 1 µM [3]: 20 ± 10% | inhibition at 1 µM [1]: 47 ± 8% | inhibition at 10 µM [2]: 25% | inhibition at 10 µM [3]: 69 ± 9% | inhibition at 10 µM [1]: 92 ± 10% | Effect of AGP on the inhibition of thymidine uptake: no significant reduction

IC50 (Mus musculus, L1210, no AGP): 670 nM | IC50 (no AGP): 1200 nM
Compound: COc1ccc(CNc2nc(OCCO)nc3c(NCc4ccc(OC)cc4)nc(OCCO)nc23)cc1 [NU3089, 2,6-Di(2'-hydroxyethoxy)-4,8-di(4'-methoxybenzylamino)pyrimidopyrimidine]
% Inhibition of 3H-thymidine uptake, No AGP (1 μM compound, no AGP, 1 µM): 24 ± 18% | inhibition at 1 µM [2]: 0% | inhibition at 1 µM [3]: 28 ± 25% | inhibition at 1 µM [1]: 40 ± 19% | inhibition at 10 µM [1]: 88 ± 11%

IC50 (Mus musculus, L1210, no AGP): ~300 nM
Compound: COc1ccc(CNc2nc(OCC(C)O)nc3c(NCc4ccc(OC)cc4)nc(OCC(C)O)nc23)cc1 (stereo not shown) [NU3087, 2,6-Di(2'-hydroxypropoxy)-4,8-bis(4'-methoxybenzylamino)pyrimidopyrimidine]
inhibition at 0.25 µM (Mus musculus, +0.125 mg/ml AGP vs no AGP, read-out: % Reduction (of inhibition by AGP)): 0% | inhibition at 0.25 µM (Mus musculus, +0.125 mg/ml AGP, read-out: % Inhibition of 3H-thymidine uptake, +0.125 mg/ml AGP): 20 ± 2% | inhibition at 0.25 µM [1]: 17% | inhibition at 1 µM [1]: 68 ± 14% | Effect of AGP on the inhibition of thymidine uptake: no significant reduction

IC50 (no AGP): 1870 nM
Compound: CN(Cc1ccccc1)c1nc(OCCO)nc2c(N(C)Cc3ccccc3)nc(OCCO)nc12 [NU3098, 2,6-di(-2-hydroxyethoxy)-4,8-di(N-methylbenzylamino)pyrimidopyrimidine]
% Inhibition of 3H-thymidine uptake, No AGP (10 μM compound, no AGP, 10 µM): 87 ± 11% | inhibition at 1 µM [1]: 44%
